For the experiment, the target named is T1, c-MYC (Homo sapiens, UniProt P01106).
T1 construct: human recombinant c-MYC protein (Abcam ab169901)
In words: microscale thermophoresis with RED-NHS labelled recombinant c-MYC. Type of experiment: binding.

Here are results for 1 molecule from article PMC10419799, “Modes of Action of a Novel c-MYC Inhibiting 1,2,4-Oxadiazole Derivative in Leukemia and Breast Cancer Cells” (Molecules, 2023).

T1 sequence (P01106 16-454): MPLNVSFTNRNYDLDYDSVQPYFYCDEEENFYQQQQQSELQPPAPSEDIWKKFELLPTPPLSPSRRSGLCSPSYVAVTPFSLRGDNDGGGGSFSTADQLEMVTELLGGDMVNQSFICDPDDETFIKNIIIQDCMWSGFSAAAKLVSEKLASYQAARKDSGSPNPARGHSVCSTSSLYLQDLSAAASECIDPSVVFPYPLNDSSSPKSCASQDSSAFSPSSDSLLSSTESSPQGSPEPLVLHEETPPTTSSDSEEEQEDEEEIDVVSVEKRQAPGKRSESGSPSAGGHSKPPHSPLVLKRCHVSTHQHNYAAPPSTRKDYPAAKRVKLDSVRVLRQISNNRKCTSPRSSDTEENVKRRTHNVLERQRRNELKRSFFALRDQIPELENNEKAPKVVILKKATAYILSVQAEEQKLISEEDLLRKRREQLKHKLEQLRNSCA

Regarding `Cc1ccc(NC(=O)N2Cc3[nH]cnc3C[C@H]2c2nc(-c3ccc4ccccc4c3)no2)cc1` [ZINC15675948, (6S)-N-(4-methylphenyl)-6-(3-naphthalen-2-yl-1,2,4-oxadiazol-5-yl)-3,4,6,7-tetrahydroimidazo [4,5-c]pyridine-5-carboxamide], the Kd amounted to 1080 ± 100 nM.

One may read the Kd as the free concentration of one partner at which half of the binding sites on the other are occupied at equilibrium, for simple one-to-one binding.
